Columns and labels:
[1] = system: ob/ob mice; assay: Leptin-deficient ob/ob mice: food intake, body weight, OGTT; type: in vivo, mouse
Procedure: To more rigorously assess the role of leptin in the anti-obesogenic effects of sphingolipid-like compound 893, the response of leptin-deficient ob/ob mice to sphingolipid-like compound 893 was measured. As expected, ob/ob mice were hyperphagic and became obese on the standard chow diet provided by University Lab Animal Resources (16% kcal from fat). Ob/ob animals were used in experiments once they attained an equivalent body weight to C57BL/6J mice fed the HFD for 24 weeks (FIG. 36).
Mice were fasted for 6 h prior to blood glucose testing at ZT10. When sphingolipid-like compound 893 treatment was combined with an OGTT, mice were treated at ZT6. Once baseline fasting blood glucose was determined using a handheld blood glucose meter (Prodigy Diabetes Care, Charlotte, N.C.) and a drop of blood collected from a tail vein nick, mice were gavaged with an oral glucose solution (20% w/v in water, 2 g/kg bodyweight) and blood glucose measured in a drop of tail vein blood at 0, 15, 30, 60 and 120 min. The area under the curve was determined using Graphpad Prism software.
Mice were singly housed and allowed to acclimate for 72 h before food intake was monitored. Food consumption was determined by monitoring the weight of food in the hopper. Initial food and body weight measurements were taken at ZT9 and final measurements were taken 16 h later to capture the active period where most consumption occurred. Home cage feeding studies were performed with C57BL/6J mice maintained on a HFD for 24 weeks (33 weeks of age), or ob/ob mice at 8 weeks of age. Mice received vehicle or 120 mg/kg sphingolipid-like compound 893 by gavage at ZT8.5. For experiments involving leptin, 18 week old, SD fed (16% kcal from fat, 2020×, Envigo) C57BL/6J mice received vehicle or 120 mg/kg sphingolipid-like compound 893 by gavage at ZT8.5. At ZT11.5, vehicle (20 mM Tris-Cl, pH 8.0) or 2 mg/kg recombinant mouse leptin (498-OB, R&D Systems, Minneapolis, Minn.) was delivered by intraperitoneal injection. The same 8 mice were used for all treatments following a 48 h washout period, and treatments were administered in the following order: vehicle, sphingolipid-like compound 893, leptin, and leptin+sphingolipid-like compound 893. All data collected from one mouse was excluded due to inadvertent pharyngeal administration during gavage reducing the n from 8 to 7 (FIG. 5a-d). […] One ob/ob mouse died during Echo MRI for unknown reasons after 6 d of treatment with sphingolipid-like compound 893; data from this mouse was analyzed prior to death.

[2] = system: KRAS G12D knock-in MEFs; assay: KRAS-mediated mitochondrial fission in KRAS G12D knock-in MEFs; type: cell-based, mouse; conditions: 893 5 μM
Procedure: 3T3-L1 cells were maintained in DMEM with 10% FBS and 1% penicillin-streptomycin until induced to differentiate. 3T3-L1 pre-adipocytes were differentiated as described in (M. P. Valley, et al., Anal. Biochem. 505: 43-50, 2016, the disclosure of which is incorporated herein by reference) with slight modifications. Briefly, pre-adipocytes were grown to confluence. After 2 d, cells were induced with maintenance media containing 500 μM IBMX (15879, Sigma-Aldrich, St. Louis, Mo.), 1 μM dexamethasone (D4902, Sigma-Aldrich), 5 μg/mL bovine insulin (10516, Sigma-Aldrich), and 5 μM troglitazone (50-115-0786, ApexBio). Media was changed every 2-3 d for 7 d. On day 7 post-induction, media was changed to maintenance media+5 μg/mL bovine insulin. On day 9 post-induction, media was changed to maintenance media. Mature adipocytes were used 12-14 d post-induction for all experiments. […]
MEFs were washed twice with PBS and fixed with 4% paraformaldehyde for 10 min at RT. […] NADH/NADPH autofluorescence was detected with 740 nm excitation and 450±50 nm detectors using a Mai Tai two-photon laser. Fluorescence microscopy was performed on a Zeiss LSM 780 confocal using a 63× oil objective with a […] numerical aperture (NA) or using a Nikon TE2000-S inverted epifluorescence microscope with a 100× oil objective (1.3 NA) and a Photometrics CoolSNAP ES2 monochrome CCD camera. […]

## CCCCCCCCc1ccc([C@H]2CCN[C@@H]2CO)cc1.Cl [compound 893]
[1]; 120 mg/kg Mon/Wed/Fri for 2 weeks
  Cumulative food intake, repeated dosing: only a modest decrease in cumulative food intake
[1]; 120 mg/kg Mon/Wed/Fri, OGTT at 14 d
  Fasting hyperglycemia and glucose tolerance: failed to correct fasting hyperglycemia or restore glucose tolerance
[1]; single oral dose 120 mg/kg
  Food intake after a single dose: decreased food intake
[1]; six doses of 120 mg/kg over 2 weeks
  Body weight gain: 5%
[2]
  Correction of KRAS-mediated mitochondrial fission in KRAS G12D MEFs: rapidly corrected KRAS-mediated mitochondrial fission

From patent US20220409617A1, “Drug Formulations and Methods of Treatment for Metabolic Disorders” (The Regents of the University of California, priority 2019, published 2022)
